The values that follow are results of earlier work, collected in patent US20240390363A1, “GRANULES CONTAINING POSACONAZOLE” (ALFRED E. TIEFENBACHER (GMBH & CO. KG), priority 2021, published 2024).

SMILES strings stand for the structures.

For data set [1] the following is noted: forms compared with form I.
For data set [2] the following is noted: storage or stress conditions; form IV: aqueous suspension.

As for `CC[C@@H]([C@H](C)O)n1ncn(-c2ccc(N3CCN(c4ccc(OC[C@@H]5CO[C@@](Cn6cncn6)(c6ccc(F)cc6F)C5)cc4)CC3)cc2)c1=O` [form Y, posaconazole], the “Aqueous / water solubility” value in data set [1] was “better water solubility”. Further, in data set [2], the “Stability of the crystalline form” value is “as stable as form I”.

Take `CC[C@@H]([C@H](C)O)n1ncn(-c2ccc(N3CCN(c4ccc(OC[C@@H]5CO[C@@](Cn6cncn6)(c6ccc(F)cc6F)C5)cc4)CC3)cc2)c1=O` [Posaconazole]: the “Aqueous / water solubility” value in data set [1] is on record as “low aqueous solubility”.

Take `CC[C@@H]([C@H](C)O)n1ncn(-c2ccc(N3CCN(c4ccc(OC[C@@H]5CO[C@@](Cn6cncn6)(c6ccc(F)cc6F)C5)cc4)CC3)cc2)c1=O` [form IV, posaconazole]: in data set [1], the “Aqueous / water solubility” value was “better water solubility”. Moreover, the “Stability of the crystalline form” value in data set [2] is on record as “better stability in an aqueous suspension”.
